Patent publication US9687569B2, “Theranostic nanoparticle and methods for making and using the nanoparticle” (priority 2012, dated 2017)

Columns and labels:
C6-ADR cells [1] = experiment: Intracellular DOX quantification; type: cell-based, rat; settings: for intracellular concentration of DOX: 1000 ng/mL DOX
Description: Concurrently, intracellular concentration of DOX was determined (FIG. 6B) by UV analysis.

C6-ADR cells [2] = experiment: Fluorescence and confocal imaging of intracellular DOX; type: cell-based, rat
Description: The internalization pathway of free DOX and NP-DOX were investigated by labeling endosomal compartments of cells with calcein after incubation with cells for 4 h.
C6-ADR cells were plated at 500,000 cells per well in 6-well plates containing 22×22 mm glass cover slips the night before treatment. Cells were treated with 1000 ng/mL free DOX or NP-DOX with equimolar concentration of DOX in 2 mL fully supplemented DMEM for 4 hrs before cells were washed three times with PBS and 2 mL fresh fully supplemented media added. After 24 hrs, cells were washed three times with PBS, and fixed in 4% formaldehyde (Polysciences Inc., Warrington, Pa.) for 30 min. Cell membranes were stained with wheat germ agglutinin, Alexa Fluor 488 conjugates (WGA-AF488, Invitrogen, Carlsbad, Calif.) following the manufacturer's protocol. The cover slips were then mounted on microscope slides using Prolong Gold anti-fade solution (Invitrogen, Carlsbad, Calif.) containing DAPI for cell nuclei staining. Images were acquired on an inverted fluorescent microscope (Nikon Instruments, Melville, N.Y.) with the appropriate filters using a Nikon Ril Color Cooled Camera System and 60× oil objective Lens. For internalization pathway experiment, cells were treated with DOX or NP-DOX in the presence of 0.25 mM calcein for 4 hrs. […] DOX and calcein uptake were analyzed using confocal microscopy (Zeiss 510 Meta).

COc1cccc2c1C(=O)c1c(O)c3c(c(O)c1C2=O)C[C@@](O)(C(=O)CO)C[C@@H]3O[C@H]1C[C@H](N)[C@H](O)[C@H](C)O1.Cl [free DOX, Doxorubicin.HCl]
intracellular concentration of DOX (C6-ADR cells [1]; 24 h after treatment): 0.13±0.01 pg/cell | decrease of intracellular DOX concentration (C6-ADR cells [1]; by 24 h after initial exposure): 91% | intracellular concentration of DOX (C6-ADR cells [1]; four hours after treatment): 1.49±0.05 pg/cell | intracellular DOX fluorescence (C6-ADR cells [2]; C6-ADR cells treated 4 h, imaged 24 h after initial incubation): minimal fluorescence | intracellular localization of DOX signal (calcein-labeled endosomes) (C6-ADR cells [2]; C6-ADR cells, 4 h incubation, confocal): partially colocalized with nucleus and partially localized in cytoplasma
